According to patent US11560385B2, “Proteasome activity enhancing compounds” (Proteostasis Therapeutics, Inc., priority 2018, dated 2023):

What follows are compounds tested against USP14 (Homo sapiens (Human), UniProt P54578) (assay: Usp14 inhibition assay (Example 5A, A-series compounds)). Conditions: average value from a minimum of two experimental determinations; read-out: Usp14 IC50 Category.
Assay type: biochemical
Excerpt: Example 5A: Usp14 Inhibition Assay
The IC50 values in the Table below represent the average value from a minimum of two experimental determinations.

Sequence of USP14 (P54578 whole entry, looked up): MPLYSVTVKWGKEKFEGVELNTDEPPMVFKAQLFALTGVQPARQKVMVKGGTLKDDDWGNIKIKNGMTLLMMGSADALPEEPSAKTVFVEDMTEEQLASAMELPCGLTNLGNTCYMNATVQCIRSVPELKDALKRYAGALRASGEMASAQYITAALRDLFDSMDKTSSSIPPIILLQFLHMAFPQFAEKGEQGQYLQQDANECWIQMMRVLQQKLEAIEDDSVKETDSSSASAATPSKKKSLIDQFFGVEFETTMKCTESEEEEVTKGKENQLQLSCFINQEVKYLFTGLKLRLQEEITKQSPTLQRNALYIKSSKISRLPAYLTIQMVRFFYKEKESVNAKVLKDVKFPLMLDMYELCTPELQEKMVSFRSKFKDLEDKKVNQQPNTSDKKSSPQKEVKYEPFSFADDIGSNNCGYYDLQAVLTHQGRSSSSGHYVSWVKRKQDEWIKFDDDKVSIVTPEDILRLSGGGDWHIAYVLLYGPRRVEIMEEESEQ

Compound | IC50
Cc1c(C(=O)CN2[C@@H]3CC[C@H]2C[C@](O)(C(C)C)C3)c2ccc(CCC#N)cc2n1-c1ccc(Cl)cc1 [Example 32A, 3-(1-(4-Chlorophenyl)-3-(2-(3-hydroxy-3-isopropyl-8-azabicyclo[3.2.1]octan-8-yl)acetyl)-2-methyl-1H-indol-6-yl)propanenitrile] | 50 to 100 nM
CO[C@H]1CC2CCC1N2CC(=O)c1c(C)n(-c2ccc(Cl)cc2)c2cc(CCCC#N)ccc12 (mixture of isomers) [Example 19A, (±)-4-(1-(4-Chlorophenyl)-3-(2-((2S)-2-methoxy-7-azabicyclo[2.2.1]heptan-7-yl)acetyl)-2-methyl-1H-indol-6-yl)butanenitrile] | < 50 nM
Cc1c(C(=O)CN2C3CCCC2CC3)c2ccc(CCC#N)cc2n1-c1ccc(Cl)cc1 [Example 33A, 3-(3-(2-(8-Azabicyclo[3.2.1]octan-8-yl)acetyl)-1-(4-chlorophenyl)-2-methyl-1H-indol-6-yl)propanenitrile] | < 50 nM
Cc1c(C(=O)CN2C3CCC2CC(O)C3)c2ccc(CCC3=NCCN3C)cc2n1-c1ccc(Cl)cc1 [Example 29A, 1-(1-(4-Chlorophenyl)-2-methyl-6-(2-(1-methyl-4,5-dihydro-1H-bimidazol-2-yl)ethyl)-1H-indol-3-yl)-2-((1R,3R,5S)-3-hydroxy-8-azabicyclo[3.2.1]octan-8-yl)ethan-1-one] | < 50 nM
Cc1c(C(=O)CN2C3CCC2CC3)c2ccc(CCC#N)cc2n1-c1ccc(Cl)cc1 [Example 8A, 3-(3-(2-(7-Azabicyclo[2.2.1]heptan-7-yl)acetyl)-1-(4-chlorophenyl)-2-methyl-1H-indol-6-yl)propanenitrile] | < 50 nM
Cc1c(C(=O)CN2CCC(O)CC2)c2ccc(CC3COC3)cc2n1-c1ccc(Cl)cc1 [Example 14A, 1-(1-(4-Chlorophenyl)-2-methyl-6-(oxetan-3-ylmethyl)-1H-indol-3-yl)-2-(4-hydroxypiperidin-1-yl)ethan-1-one] | 50 to 100 nM
Cc1c(C(=O)CN2CCC(O)CC2)c2ccc(CCC#N)cc2n1-c1ccc(Cl)cc1 [Example 9A] | > 100 nM
Cc1c(C(=O)CN2CCC(O)CC2)c2ccc(CCS(C)(=O)=O)cc2n1-c1ccc(Cl)cc1 [Example 7A, 1-(1-(4-Chlorophenyl)-2-methyl-6-(2-(methylsulfonyl)ethyl)-1H-indol-3-yl)-2-(4-hydroxypiperidin-1-yl)ethan-1-one] | < 50 nM
CO[C@H]1C[C@@H]2CC[C@H]1N2CC(=O)c1c(C)n(-c2ccc(Cl)cc2)c2cc(CC3COC3)ccc12 [Example 12A, 1-(1-(4-Chlorophenyl)-2-methyl-6-(oxetan-3-ylmethyl)-1H-indol-3-yl)-2-((1R,2S,4S)-2-methoxy-7-azabicyclo[2.2.1]heptan-7-yl)ethan-1-one] | 50 to 100 nM
CO[C@H]1CC2CCC1N2CC(=O)c1c(C)n(-c2ccc(Cl)cc2)c2cc(CCC#N)ccc12 (mixture of isomers) [Example 15A, (±)-3-(1-(4-Chlorophenyl)-3-(2-((2S)-2-methoxy-7-azabicyclo[2.2.1]heptan-7-yl)acetyl)-2-methyl-1H-indol-6-yl)propanenitrile] | < 50 nM
Cc1c(C(=O)CN2[C@@H]3CCC[C@H]2CC3)c2ccc(CCS(C)(=O)=O)cc2n1-c1ccc(Cl)cc1 [Example 2A, 2-((1R,5S)-8-Azabicyclo[3.2.1]octan-8-yl)-1-(1-(4-chlorophenyl)-2-methyl-6-(2-(methylsulfonyl)ethyl)-1H-indol-3-yl)ethan-1-one] | < 50 nM
